Results from article PMC6757289, “Design and Characterization of SGK3-PROTAC1, an Isoform Specific SGK3 Kinase PROTAC Degrader” (ACS Chemical Biology, 2019).
Read-outs that look alike come from different tables or passages of the source.

Experiments:
Test in all cases: kinase profiling panel
Assay type in all cases: biochemical
Details in all cases: read-out: % Activity Remaining
CHK2 = CHK2 (Homo sapiens, UniProt O96017)
Description: (§1) Protein kinase profiling against a Dundee panel of 140 protein kinases was undertaken at the International Centre for Protein Kinase Profiling. The result for each kinase was presented as a mean kinase activity of the reaction taken in triplicate relative to a control sample treated with DMSO. Assay conditions and abbreviations are available at http://www.kinase-screen.mrc.ac.uk.

TAO1 = target: T1, TAO1 (Homo sapiens, UniProt Q7L7X3)
T1 sequence (Q7L7X3 1-1001): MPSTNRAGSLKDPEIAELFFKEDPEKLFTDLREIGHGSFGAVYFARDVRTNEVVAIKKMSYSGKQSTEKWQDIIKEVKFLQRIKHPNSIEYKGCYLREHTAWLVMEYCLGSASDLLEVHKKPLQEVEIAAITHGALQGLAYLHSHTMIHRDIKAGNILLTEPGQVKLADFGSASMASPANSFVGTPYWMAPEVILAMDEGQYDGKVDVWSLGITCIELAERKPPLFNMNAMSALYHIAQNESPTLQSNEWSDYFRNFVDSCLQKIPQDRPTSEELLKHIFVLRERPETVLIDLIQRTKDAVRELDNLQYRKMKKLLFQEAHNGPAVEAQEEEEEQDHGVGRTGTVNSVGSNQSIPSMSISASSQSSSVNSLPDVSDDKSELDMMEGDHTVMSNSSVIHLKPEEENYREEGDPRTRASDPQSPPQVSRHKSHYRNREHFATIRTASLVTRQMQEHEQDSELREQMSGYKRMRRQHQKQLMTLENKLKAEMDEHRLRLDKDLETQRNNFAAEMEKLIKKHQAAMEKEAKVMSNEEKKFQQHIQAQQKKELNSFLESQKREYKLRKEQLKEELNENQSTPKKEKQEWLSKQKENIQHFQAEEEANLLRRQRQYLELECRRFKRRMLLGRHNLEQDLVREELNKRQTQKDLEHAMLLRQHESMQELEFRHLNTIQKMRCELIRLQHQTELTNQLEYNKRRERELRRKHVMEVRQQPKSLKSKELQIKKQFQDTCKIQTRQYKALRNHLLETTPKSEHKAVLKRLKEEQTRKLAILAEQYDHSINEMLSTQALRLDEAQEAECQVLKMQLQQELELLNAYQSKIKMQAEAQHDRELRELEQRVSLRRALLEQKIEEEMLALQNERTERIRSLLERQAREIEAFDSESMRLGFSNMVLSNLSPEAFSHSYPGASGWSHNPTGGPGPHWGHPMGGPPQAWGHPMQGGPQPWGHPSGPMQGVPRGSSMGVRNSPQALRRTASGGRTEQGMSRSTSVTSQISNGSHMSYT
Description: as §1

JAK2 = JAK2 (Homo sapiens, UniProt O60674)
Description: as §1

TESK1 = TESK1 (Homo sapiens, UniProt Q15569)
Description: as §1

p38 delta MAPK = target: T2, p38 delta MAPK (Homo sapiens, UniProt O15264)
T2 sequence (O15264 1-365): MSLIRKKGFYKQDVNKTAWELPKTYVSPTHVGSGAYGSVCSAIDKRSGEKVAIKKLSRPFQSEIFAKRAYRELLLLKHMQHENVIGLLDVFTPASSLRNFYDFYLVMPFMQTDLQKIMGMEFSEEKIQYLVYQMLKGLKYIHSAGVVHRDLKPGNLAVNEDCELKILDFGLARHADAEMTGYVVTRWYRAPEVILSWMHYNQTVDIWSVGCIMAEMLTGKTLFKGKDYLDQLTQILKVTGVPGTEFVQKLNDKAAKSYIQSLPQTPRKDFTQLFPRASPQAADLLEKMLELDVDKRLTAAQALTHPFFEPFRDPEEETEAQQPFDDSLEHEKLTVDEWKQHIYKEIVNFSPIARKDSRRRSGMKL
Description: as §1

PKC zeta = target: T3, PKC zeta (Homo sapiens, UniProt Q05513)
T3 sequence (Q05513 1-592): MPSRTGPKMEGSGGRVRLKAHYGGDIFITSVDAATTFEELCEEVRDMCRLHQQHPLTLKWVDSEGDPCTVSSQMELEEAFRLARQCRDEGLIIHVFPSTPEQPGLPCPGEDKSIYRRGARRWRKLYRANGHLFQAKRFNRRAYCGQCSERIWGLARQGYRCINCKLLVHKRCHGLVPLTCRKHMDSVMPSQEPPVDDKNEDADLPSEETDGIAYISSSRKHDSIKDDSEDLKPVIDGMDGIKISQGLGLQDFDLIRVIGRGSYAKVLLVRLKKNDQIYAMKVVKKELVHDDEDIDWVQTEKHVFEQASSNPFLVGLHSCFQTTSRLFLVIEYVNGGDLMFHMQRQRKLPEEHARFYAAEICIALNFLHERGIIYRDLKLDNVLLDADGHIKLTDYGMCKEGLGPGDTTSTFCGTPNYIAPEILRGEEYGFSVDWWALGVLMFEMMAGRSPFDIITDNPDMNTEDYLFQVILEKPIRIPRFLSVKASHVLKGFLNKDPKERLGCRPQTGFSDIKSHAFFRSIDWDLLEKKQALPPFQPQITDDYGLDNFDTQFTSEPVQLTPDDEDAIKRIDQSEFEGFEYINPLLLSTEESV
Description: as §1

Sequence of JAK2 (O60674 whole entry): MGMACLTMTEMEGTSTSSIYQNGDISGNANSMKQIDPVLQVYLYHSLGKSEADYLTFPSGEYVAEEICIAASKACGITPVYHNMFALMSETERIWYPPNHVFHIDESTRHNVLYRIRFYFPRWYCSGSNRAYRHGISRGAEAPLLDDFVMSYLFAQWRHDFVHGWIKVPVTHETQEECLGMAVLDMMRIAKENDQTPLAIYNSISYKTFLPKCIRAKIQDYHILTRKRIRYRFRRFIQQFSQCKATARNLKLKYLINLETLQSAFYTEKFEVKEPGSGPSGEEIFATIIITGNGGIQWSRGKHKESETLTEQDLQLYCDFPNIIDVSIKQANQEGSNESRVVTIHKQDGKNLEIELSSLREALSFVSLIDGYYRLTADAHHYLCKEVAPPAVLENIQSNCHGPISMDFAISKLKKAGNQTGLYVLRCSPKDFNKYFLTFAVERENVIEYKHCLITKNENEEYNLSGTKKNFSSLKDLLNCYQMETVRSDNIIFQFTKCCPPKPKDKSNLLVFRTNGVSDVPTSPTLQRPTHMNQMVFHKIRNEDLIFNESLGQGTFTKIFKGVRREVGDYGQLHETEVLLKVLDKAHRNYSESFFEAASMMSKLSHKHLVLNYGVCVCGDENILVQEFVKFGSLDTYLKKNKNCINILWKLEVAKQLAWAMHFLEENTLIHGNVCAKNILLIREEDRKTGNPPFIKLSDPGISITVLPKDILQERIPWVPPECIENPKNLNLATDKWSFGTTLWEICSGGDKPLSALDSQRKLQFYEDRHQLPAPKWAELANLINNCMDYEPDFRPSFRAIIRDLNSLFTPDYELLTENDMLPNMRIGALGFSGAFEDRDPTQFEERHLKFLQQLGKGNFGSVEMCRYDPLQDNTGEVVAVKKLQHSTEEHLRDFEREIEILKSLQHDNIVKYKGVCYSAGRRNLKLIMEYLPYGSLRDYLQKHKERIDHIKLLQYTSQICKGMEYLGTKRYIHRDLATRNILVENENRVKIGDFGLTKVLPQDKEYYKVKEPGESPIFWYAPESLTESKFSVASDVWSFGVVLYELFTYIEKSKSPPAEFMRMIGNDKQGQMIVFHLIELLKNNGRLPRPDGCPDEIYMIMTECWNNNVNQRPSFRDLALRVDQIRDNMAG
Sequence of TESK1 (Q15569 whole entry): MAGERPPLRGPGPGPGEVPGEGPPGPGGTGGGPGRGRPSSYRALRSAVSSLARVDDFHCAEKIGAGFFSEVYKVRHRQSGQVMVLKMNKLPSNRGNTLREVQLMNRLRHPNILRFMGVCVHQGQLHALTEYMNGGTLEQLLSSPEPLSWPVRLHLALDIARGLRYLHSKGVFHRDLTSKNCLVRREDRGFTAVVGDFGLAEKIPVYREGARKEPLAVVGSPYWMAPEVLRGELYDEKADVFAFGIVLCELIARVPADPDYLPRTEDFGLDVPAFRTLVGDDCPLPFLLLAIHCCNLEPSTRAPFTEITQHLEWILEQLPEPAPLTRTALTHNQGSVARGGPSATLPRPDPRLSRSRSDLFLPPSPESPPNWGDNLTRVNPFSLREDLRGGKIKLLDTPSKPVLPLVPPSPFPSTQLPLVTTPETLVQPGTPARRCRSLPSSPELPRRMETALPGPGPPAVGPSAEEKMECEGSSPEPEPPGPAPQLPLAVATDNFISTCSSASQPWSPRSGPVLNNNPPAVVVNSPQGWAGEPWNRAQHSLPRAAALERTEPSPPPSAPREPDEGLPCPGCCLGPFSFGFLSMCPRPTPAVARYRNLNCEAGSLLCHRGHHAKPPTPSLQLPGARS
Sequence of CHK2 (O96017 whole entry): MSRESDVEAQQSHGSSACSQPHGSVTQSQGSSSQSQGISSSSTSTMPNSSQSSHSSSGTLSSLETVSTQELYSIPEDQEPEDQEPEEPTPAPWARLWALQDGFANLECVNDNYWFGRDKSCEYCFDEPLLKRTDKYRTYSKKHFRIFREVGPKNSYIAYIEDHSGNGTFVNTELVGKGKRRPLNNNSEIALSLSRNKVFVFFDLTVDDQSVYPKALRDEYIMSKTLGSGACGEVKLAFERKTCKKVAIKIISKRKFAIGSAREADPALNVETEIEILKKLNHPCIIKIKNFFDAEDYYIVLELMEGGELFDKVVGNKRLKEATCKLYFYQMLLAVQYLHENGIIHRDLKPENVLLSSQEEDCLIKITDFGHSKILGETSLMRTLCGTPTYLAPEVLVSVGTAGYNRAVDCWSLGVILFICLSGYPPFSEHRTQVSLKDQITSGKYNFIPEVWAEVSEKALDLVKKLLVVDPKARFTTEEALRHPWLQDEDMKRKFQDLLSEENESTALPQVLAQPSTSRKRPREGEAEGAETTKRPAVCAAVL

`COc1ccc(Cl)c(S(=O)(=O)Nc2ccc(-c3nc(OC[C@H]4CNCCO4)c4c(C)n[nH]c4n3)cc2)c1` [290-R, reference compound] was tested, and the remaining activity at 1 µM (CHK2) was 9%, the remaining activity at 1 µM (TAO1) was 110% and the remaining activity at 1 µM (JAK2) was 112%. For the same molecule, the remaining activity at 1 µM (TESK1) was 77%, the remaining activity at 1 µM (p38 delta MAPK) was 111% and the remaining activity at 1 µM (PKC zeta) was 110%.
For `Cc1ccc(F)c(S(=O)(=O)Nc2ccc(-c3nc(OC[C@H]4CNCCO4)c4cn[nH]c4n3)cc2)c1` [308-R, reference compound], the remaining activity at 1 µM (CHK2) was 24%, the remaining activity at 1 µM (TAO1) was 123% and the remaining activity at 1 µM (JAK2) was 94%. For the same molecule, the remaining activity at 1 µM (TESK1) was 69%, the remaining activity at 1 µM (p38 delta MAPK) was 126% and the remaining activity at 1 µM (PKC zeta) was 72%.
`Cc1ccc(F)c(S(=O)(=O)Nc2ccc(-c3nc(OC[C@H]4CN(CCCCCCOCCOCCOCC(=O)N[C@H](C(=O)N5C[C@H](O)C[C@H]5C(=O)NCc5ccc(-c6scnc6C)cc5)C(C)(C)C)CCO4)c4cn[nH]c4n3)cc2)c1` [SGK3-PROTAC1] gave a remaining activity at 1 µM (CHK2; 1 µM) of 85%, a remaining activity at 1 µM (TAO1; 1 µM) of 99% and a remaining activity at 1 µM (JAK2; 1 µM) of 95%. For the same molecule, the remaining activity at 1 µM (TESK1; 1 µM) was 122%, the remaining activity at 1 µM (p38 delta MAPK; 1 µM) was 103% and the remaining activity at 1 µM (PKC zeta; 1 µM) was 96%.
In the case of `Cc1ccc(F)c(S(=O)(=O)Nc2ccc(-c3nc(OC[C@H]4CN(CCCCCCOCCOCCOCC(=O)N[C@H](C(=O)N5C[C@@H](O)C[C@H]5C(=O)NCc5ccc(-c6scnc6C)cc5)C(C)(C)C)CCO4)c4cn[nH]c4n3)cc2)c1` [cisSGK3-PROTAC1], the remaining activity at 1 µM (CHK2; 1 µM) is reported as 99%, the remaining activity at 1 µM (TAO1; 1 µM) is reported as 105% and the remaining activity at 1 µM (JAK2; 1 µM) is reported as 94%. For the same molecule, the remaining activity at 1 µM (TESK1; 1 µM) was 120%, the remaining activity at 1 µM (p38 delta MAPK; 1 µM) was 121% and the remaining activity at 1 µM (PKC zeta; 1 µM) was 110%.
